One assay addresses T1, CDK4/Cyclin D1 (Homo sapiens, UniProt P11802).
T1 construct: purchased ProQinase; host or cells: insect cell
Description: CDK4/CyclinD1 Enzymatic Activity Assay (TR-FRET). To be noted: ATP 2 mM, recombinant CDK4/Cyclin D1 1 nM, read-out: CDK4_D1 IC50. Format: biochemical. As for the experimental part:
CDK4/CyclinD1 Enzymatic Activity Assay
(§1) The inhibitory activity of compounds was evaluated in vitro using TR-FRET assay with white 384-well low volume microplate (Greiner Bio-One). CDK4/Cyclin D1 catalyzed phosphorylation of peptides in the presence and absence of compounds was measured and used in IC50 determination. Recombinant protein complex CDK4/Cyclin D1, expressed from insect cell, was purchased from ProQinase. Testing compounds were dissolved in DMSO at 1 mM and tested in 9-dose IC50 mode. The reaction mixture was prepared by mixing CDK4/CyclinD1 (1 nM final), ULight-4E-BP1 (100 nM final, Perkinelmer, TRF0128-D), and ATP (2 mM final) in assay buffer (20 mM of HEPES pH 7.4, 1 mM of EGTA, 0.05% BSA, 0.005% Tween 20, and 1 mM TCEP). The compound of interest in DMSO was added to each well in 3-fold serial dilution by the dispenser (TECAN D300E) to make a 9.9 μL of the reaction mixture. After 20 minutes of preincubation at room temperature, 0.1 μL MgCl2 (10 mM final) was added to initiate the reaction. Following a 45 minutes incubation at 37° C., the reaction was stopped by the addition of 2 μL of quenching buffer consisting of Lance detection buffer (Perkinelmer CR97-100C), LANCE Ultra Europium-anti-P-4E-BP1 (Perkinelmer, TRF0216-D), EDTA, and incubate at room temperature for additional 60 minutes in the dark. The reaction signal was measured by Envision multimode plate reader (PerkinElmer, 2102-0010). IC50 values were determined by fitting the data to the standard 4 parameters with Hill Slope using GraphPad Prism software.

The target of the next assay is T2, CDK9/Cyclin T1 (Homo sapiens, UniProt P50750).
T2 construct: purchased ProQinase; host or cells: insect cell
Description: CDK9/CyclinT1 Enzymatic Activity Assay (TR-FRET). Format: biochemical. As to conditions: ATP 1 mM, recombinant CDK9/Cyclin T1 1 nM, read-out: CDK9_T1 IC50. As for the experimental part:
CDK9/CyclinT1 Enzymatic Activity Assay
as §1, with “Bio-One). CDK9/Cyclin T1” for “Bio-One). CDK4/Cyclin D1”, “complex CDK9/Cyclin T1,” for “complex CDK4/Cyclin D1,”, “mixing CDK9/CyclinT1” for “mixing CDK4/CyclinD1”, “ULight-4E-BP1 (50” for “ULight-4E-BP1 (100”, “ATP (1” for “ATP (2”

A further assay relates to H929 cells. Briefly: CellTiter-Glo Protocol (Proliferation). Type of assay: cell-based. To be noted: Homo sapiens, NCI-H929, 24 hours, read-out: PROLIFERATION_CTG_H929 IC50. As for the experimental part:
CellTiter-Glo® Protocol (Proliferation)
Dispense 10 μL aliquot of prepared H929 cells (1:1 ratio of cells: Trypan Blue (#1450013, Bio-Rad)) onto cell counting slide (#145-0011, Bio-Rad) and obtain cell density and cell viability using a cell counter (TC20, Bio-Rad). Remove appropriate volume of resuspended cells from culture flask to accommodate 4000 cells/well at 10 μL/well. Transfer H929 cells to 50 mL conical (#430290, Corning). Spin down at 1000 rpm for 5 min. using a tabletop centrifuge (SPINCHRON 15, Beckman). Discard supernatant and resuspend cell pellet in modified RPMI 1640 (#10-040-CV, Corning) cell culture media containing 10% FBS (F2422-500ML, Sigma), sodium pyruvate (100 mM) (#25-000-CL, Corning), HEPES buffer (1M) (#25-060-CL, Corning) and glucose (200 g/L) (A24940-01, Gibco) to a cell density of 400,000 cells/mL. Dispense 10 μL of resuspended H929 cells per well in 384-well small volume TC treated plate (#784080, Greiner Bio-one) using standard cassette (#50950372, Thermo Scientific) on Multidrop Combi (#5840310, Thermo Scientific) in laminar flow cabinet. Dispense compounds onto plates using a digital liquid dispenser (D300E, Tecan). Incubate plates in humidified tissue culture incubator at 37° C. for 24 hours. Add 10 μL of prepared CellTiTer-Glo® detection buffer (G7570, Promega) to each well of 384-well plate using small tube cassette (#24073295, Thermo Scientific) on Combi multi-drop, incubate at RT for 30-60 min. Read plates with a microplate reader (PheraStar, BMG Labtech) using 384 well luminescence mode. See Table B (Proliferation_CTG_H929).

The target in another assay is T3, CDK2/Cyclin A2 (Homo sapiens, UniProt P24941).
T3 construct: purchased ProQinase; host or cells: insect cell
Briefly: CDK2/CyclinA2 Enzymatic Activity Assay (TR-FRET). As to conditions: ATP 1 mM, recombinant CDK2/Cyclin A2 1 nM, read-out: CDK2_A2 IC50. Format: biochemical. As for the experimental part: CDK2/CyclinA2 Enzymatic Activity Assay
The inhibitory activity of compounds was evaluated in vitro using TR-FRET assay with white 384-well low volume microplate (Greiner Bio-One). CDK2/Cyclin A2 catalyzed phosphorylation of peptides in the presence and absence of compounds was measured and used in IC50 determination. Recombinant protein complex CDK2/Cyclin A2, expressed from insect cell, was purchased from ProQinase. Testing compounds were dissolved in DMSO at 1 mM and tested in 9-dose IC50 mode. The reaction mixture was prepared by mixing CDK2/CyclinA2 (1 nM final), ULight-4E-BP1 (50 nM final, Perkinelmer, TRF0128-D), and ATP (1 mM final) in assay buffer (20 mM of HEPES pH 7.4, 1 mM of EGTA, 0.05% BSA, 0.005% Tween 20, and 1 mM TCEP). The compound of interest in DMSO was added to each well in 3-fold serial dilution by the dispenser (TECAN D300E) to make a 9.9 μL of the reaction mixture. After 20 minutes preincubation at room temperature, 0.1 μL MgCl2 (10 mM final) was added to initiate the reaction. Following a 45 minutes incubation at 37° C., the reaction was stopped by addition of 2 μL of quenching buffer consisting of Lance detection buffer (Perkinelmer CR97-100C), LANCE Ultra Europium-anti-P-4E-BP1 (Perkinelmer, TRF0216-D), EDTA, and incubate at room temperature for additional 60 minutes in the dark. The reaction signal was measured by Envision multimode plate reader (PerkinElmer, 2102-0010). IC50 values were determined by fitting the data to the standard 4 parameters with Hill Slope using GraphPad Prism software.

T2 sequence (P50750 whole entry): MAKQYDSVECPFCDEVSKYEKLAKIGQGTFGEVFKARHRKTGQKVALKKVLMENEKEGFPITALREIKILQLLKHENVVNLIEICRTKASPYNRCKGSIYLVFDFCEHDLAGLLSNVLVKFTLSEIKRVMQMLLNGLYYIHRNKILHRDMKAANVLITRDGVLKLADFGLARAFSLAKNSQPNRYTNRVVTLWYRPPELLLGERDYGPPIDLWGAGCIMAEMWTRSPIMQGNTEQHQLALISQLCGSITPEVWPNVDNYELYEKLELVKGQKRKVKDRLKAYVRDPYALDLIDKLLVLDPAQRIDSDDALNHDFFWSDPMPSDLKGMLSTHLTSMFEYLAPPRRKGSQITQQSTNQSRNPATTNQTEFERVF
T2 sequence (O60563 whole entry partner): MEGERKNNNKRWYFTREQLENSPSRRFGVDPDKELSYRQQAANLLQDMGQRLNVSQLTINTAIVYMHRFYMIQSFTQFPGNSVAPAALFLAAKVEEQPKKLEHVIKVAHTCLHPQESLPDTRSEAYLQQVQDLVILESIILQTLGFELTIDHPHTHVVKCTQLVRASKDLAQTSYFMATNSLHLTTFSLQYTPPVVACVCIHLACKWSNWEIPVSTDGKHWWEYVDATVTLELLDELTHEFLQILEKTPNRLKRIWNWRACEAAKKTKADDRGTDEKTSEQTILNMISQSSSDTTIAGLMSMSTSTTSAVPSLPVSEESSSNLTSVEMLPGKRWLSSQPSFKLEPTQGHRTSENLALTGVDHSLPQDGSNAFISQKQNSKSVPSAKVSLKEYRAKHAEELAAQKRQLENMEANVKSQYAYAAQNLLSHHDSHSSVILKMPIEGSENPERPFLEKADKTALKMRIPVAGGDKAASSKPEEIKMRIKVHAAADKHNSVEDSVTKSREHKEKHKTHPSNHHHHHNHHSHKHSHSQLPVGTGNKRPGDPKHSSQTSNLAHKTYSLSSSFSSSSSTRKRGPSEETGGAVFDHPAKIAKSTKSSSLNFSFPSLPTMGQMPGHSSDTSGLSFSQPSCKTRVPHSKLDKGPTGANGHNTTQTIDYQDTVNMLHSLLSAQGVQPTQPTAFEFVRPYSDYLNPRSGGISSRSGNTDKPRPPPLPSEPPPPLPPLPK
T1 sequence (P11802 whole entry): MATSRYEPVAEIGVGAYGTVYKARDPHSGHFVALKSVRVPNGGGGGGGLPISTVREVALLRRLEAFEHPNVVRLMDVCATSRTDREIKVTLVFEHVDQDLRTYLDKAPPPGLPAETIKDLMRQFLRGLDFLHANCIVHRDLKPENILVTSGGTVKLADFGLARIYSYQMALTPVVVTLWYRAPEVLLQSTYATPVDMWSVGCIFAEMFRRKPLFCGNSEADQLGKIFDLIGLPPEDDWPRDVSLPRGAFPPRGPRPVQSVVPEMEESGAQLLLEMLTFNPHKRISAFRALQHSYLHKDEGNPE
T1 sequence (P24385 whole entry partner): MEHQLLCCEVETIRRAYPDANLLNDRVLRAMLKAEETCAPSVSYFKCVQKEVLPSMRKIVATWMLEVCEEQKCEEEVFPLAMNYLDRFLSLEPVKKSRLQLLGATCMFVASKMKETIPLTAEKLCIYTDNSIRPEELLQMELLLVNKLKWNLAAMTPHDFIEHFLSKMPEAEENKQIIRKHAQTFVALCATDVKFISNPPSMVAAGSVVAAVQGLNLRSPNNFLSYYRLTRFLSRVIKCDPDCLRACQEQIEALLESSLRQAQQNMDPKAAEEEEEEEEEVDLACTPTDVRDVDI

With `CC(=O)N[C@@H]1CCC[C@H](C(=O)Nc2cc(-c3cccc4c3CCN4)c(Cl)cn2)C1` [Example 1, (1S,3R)-3-acetamido-N-(5-chloro-4-(indolin-4-yl)pyridin-2-yl)cyclohexane-1-carboxamide], the IC50 was 200 to 1000 nM at CDK4/Cyclin D1, below 20 nM on CDK9/Cyclin T1 and 20 to 200 nM with H929 cells.
Taken in the same sequence, the figures for `CC(=O)N[C@@H]1CCC[C@H](C(=O)Nc2cc(-c3cccc4c3CC(C)N4)c(Cl)cn2)C1` (stereo partly drawn) [Example 2, (1S,3R)-3-acetamido-N-(5-chloro-4-(2-methylindolin-4-yl)pyridin-2-yl)cyclohexane-1-carboxamide] were 200 to 1000 nM, below 20 nM and 20 to 200 nM.
Taken in the same sequence, the figures for `CC(=O)N[C@@H]1CCC[C@H](C(=O)Nc2cc(-c3cccc4c3CCCN4)c(Cl)cn2)C1` [Example 3, (1S,3R)-3-acetamido-N-(5-chloro-4-(1,2,3,4-tetrahydroquinolin-5-yl)pyridin-2-yl)cyclohexane-1-carboxamide] were above 1000 nM, 20 to 200 nM and 20 to 200 nM.
On the same counts, the results for `CC(=O)N[C@@H]1CCC[C@H](C(=O)Nc2cc(-c3cccc4c3OCCN4)c(Cl)cn2)C1` [Example 4, (1S,3R)-3-acetamido-N-(5-chloro-4-(3,4-dihydro-2H-benzo[b][1,4]oxazin-8-yl)pyridin-2-yl)cyclohexane-1-carboxamide] are above 1000 nM, below 20 nM and 20 to 200 nM.
For the compound `Cc1cnc(NC(=O)[C@H]2CCC[C@@H](NC(=O)CC#N)C2)cc1-c1cccc2c1CC(C)(C)N2` [Example 6, (1S,3R)-3-(2-cyanoacetamido)-N-(4-(2,2-dimethylindolin-4-yl)-5-methylpyridin-2-yl)cyclohexane-1-carboxamide], the values for the IC50 at CDK4/Cyclin D1 and on CDK9/Cyclin T1 were above 1000 nM and below 20 nM, respectively.
Taken in the same sequence, the figures for `CC(=O)N[C@@H]1CCC[C@H](C(=O)Nc2cc(-c3cccc4c3OCC(C)(C)N4)c(Cl)cn2)C1` [Example 9, (1S,3R)-3-acetamido-N-(5-chloro-4-(3,3-dimethyl-3,4-dihydro-2H-benzo[b][1,4]oxazin-8-yl)pyridin-2-yl)cyclohexane-1-carboxamide] were above 1000 nM and below 20 nM.
Taken in the same sequence, the figures for `N#CCC(=O)N[C@@H]1CCC[C@H](C(=O)Nc2cc(-c3cccc4c3OCCN4)c(Cl)cn2)C1` [Example 10, (1S,3R)—N-(5-chloro-4-(3,4-dihydro-2H-benzo[b][1,4]oxazin-8-yl)pyridin-2-yl)-3-(2-cyanoacetamido)cyclohexane-1-carboxamide] were 20 to 200 nM and below 20 nM.
On the same counts, the results for `CC1(C)COc2c(cccc2-c2cc(NC(=O)[C@H]3CCC[C@@H](NC(=O)CC#N)C3)ncc2Cl)N1` [Example 11, (1S,3R)—N-(5-chloro-4-(3,3-dimethyl-3,4-dihydro-2H-benzo[b][1,4]oxazin-8-yl)pyridin-2-yl)-3-(2-cyanoacetamido)cyclohexane-1-carboxamide] are above 1000 nM and below 20 nM.
`N#CCC(=O)N[C@@H]1CCC[C@H](C(=O)Nc2cc(-c3cc(F)cc4c3OCCN4)c(Cl)cn2)C1` [Example 12, (1S,3R)—N-(5-chloro-4-(6-fluoro-3,4-dihydro-2H-benzo[b][1,4]oxazin-8-yl)pyridin-2-yl)-3-(2-cyanoacetamido)cyclohexane-1-carboxamide]: the IC50 at CDK4/Cyclin D1 is 20 to 200 nM; at CDK9/Cyclin T1 it was below 20 nM; at CDK2/Cyclin A2, 200 to 1000 nM.
In the case of `CC1COc2c(cc(F)cc2-c2cc(NC(=O)[C@H]3CCC[C@@H](NC(=O)CC#N)C3)ncc2Cl)N1` (stereo partly drawn) [Example 13, (1S,3R)—N-(5-chloro-4-(6-fluoro-3-methyl-3,4-dihydro-2H-benzo[b][1,4]oxazin-8-yl)pyridin-2-yl)-3-(2-cyanoacetamido)cyclohexane-1-carboxamide], the values for the IC50 on CDK4/Cyclin D1 and on CDK9/Cyclin T1 were 20 to 200 nM and below 20 nM, respectively.
On to `CC(=O)N[C@@H]1CCC[C@H](C(=O)Nc2cc(-c3cccc4c3CC(C)(C)O4)c(Cl)cn2)C1` [Example 14, (1S,3R)-3-acetamido-N-(5-chloro-4-(2,2-dimethyl-2,3-dihydrobenzofuran-4-yl)pyridin-2-yl)cyclohexane-1-carboxamide], for which the IC50 at CDK4/Cyclin D1 is above 1000 nM; at CDK9/Cyclin T1, below 20 nM; in the assay with H929 cells it was 200 to 1000 nM.
As for `CC1(C)Cc2cccc(-c3cc(NC(=O)[C@H]4CCC[C@@H](NC(=O)CC#N)C4)ncc3Cl)c2O1` [Example 15, (1S,3R)—N-(5-chloro-4-(2,2-dimethyl-2,3-dihydrobenzofuran-7-yl)pyridin-2-yl)-3-(2-cyanoacetamido)cyclohexane-1-carboxamide], the IC50 on CDK4/Cyclin D1 is above 1000 nM; at CDK9/Cyclin T1, below 20 nM.
